Source: PubChem BioAssay (NCI)
Several values for one entry are separate records, joined by “and”; a condition that tells them apart may be missing. Identical values can stand only once.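 Exposure lasted 48 hours, with cells grown in 96-well plates and compounds tested at five concentrations. GI50 = concentration required for 50% inhibition of growth. At the TGI there is no net growth.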

Columns and labels:
Assay in all cases: NCI tumour cell line growth inhibition, 48 h
HCC-2998 colon = tested on: HCC-2998 colon
HCT-116 colon = tested on: HCT-116 colon
HCT-15 colon = tested on: HCT-15 colon
HL-60(TB) leukemia = tested on: HL-60(TB) leukemia
MALME-3M melanoma = tested on: MALME-3M melanoma
OVCAR-3 ovarian = tested on: OVCAR-3 ovarian
OVCAR-5 ovarian = tested on: OVCAR-5 ovarian
SN12C renal = tested on: SN12C renal
SNB-19 CNS = tested on: SNB-19 CNS
SNB-75 CNS = tested on: SNB-75 CNS

Row | Compound | TGI (HCC-2998 colon) | TGI (HCT-116 colon) | TGI (HCT-15 colon) | TGI (HL-60(TB) leukemia) | TGI (MALME-3M melanoma) | TGI (OVCAR-3 ovarian) | TGI (OVCAR-5 ovarian) | TGI (SN12C renal) | TGI (SNB-19 CNS) | TGI (SNB-75 CNS) | GI50 (HCC-2998 colon) | GI50 (HCT-116 colon) | GI50 (HCT-15 colon) | GI50 (HL-60(TB) leukemia) | GI50 (MALME-3M melanoma) | GI50 (OVCAR-3 ovarian) | GI50 (OVCAR-5 ovarian) | GI50 (SN12C renal) | GI50 (SNB-19 CNS) | GI50 (SNB-75 CNS)
1 | C=C[C@@]1(C)CCC2(O)C(CCC3C2(C)CCC[C@@]3(C)COC(=O)CC(=O)OC)C1 (some centres not stated) | > 100 µM | 32.3 µM | 34.9 µM | 52.6 µM | 32.3 µM | 32.5 µM | 57.8 µM | 38.2 µM | > 100 µM | 48.4 µM |  |  |  |  |  |  |  |  |  | 
2 | COc1ccc(C(C#N)NC23CC4CC(CC(C4)C2)C3)cc1OC (configuration not stated) | > 100 µM | > 100 µM | > 100 µM | > 100 µM | > 100 µM | > 100 µM | > 100 µM | > 100 µM | > 100 µM | > 100 µM |  |  |  |  |  |  |  |  |  | 
3 | Cc1csc(/C=N/NC(=O)c2nnn(-c3ccnc4c(C(F)(F)F)cccc34)c2C)c1 | > 100 µM | > 100 µM | > 100 µM | > 100 µM | 92.2 µM | > 100 µM | > 100 µM | > 100 µM | > 100 µM | 92.1 µM | > 100 µM | 36 µM | 36.9 µM | 50.3 µM | 26.9 µM | 90.3 µM | > 100 µM | 71.4 µM | 97.3 µM | 27.2 µM
4 | COc1cc(NS(C)(=O)=O)ccc1Nc1c2ccccc2nc2c(C)cccc12 | 6.32 µM and 5.51 µM | 2.13 µM and 2.37 µM | 2.61 µM and 3.53 µM | 0.889 µM and 0.669 µM | 3.81 µM and 3.2 µM | 2.35 µM and 2.94 µM | 13.9 µM and 11.9 µM | 1.36 µM and 2.08 µM | 15.5 µM and 15.9 µM | 4.31 µM and 10.7 µM | 0.645 µM and 0.695 µM | 0.133 µM and 0.16 µM | 0.202 µM and 0.242 µM | 0.0403 µM and 0.046 µM | 0.312 µM and 0.251 µM | 0.794 µM and 0.933 µM | 0.571 µM and 0.572 µM | 0.0961 µM and 0.087 µM | 0.196 µM and 0.23 µM | 0.143 µM and 0.316 µM
5 | Cc1cc(Cc2cc(C)c(O)c(C)c2)cc(C)c1O | 82.1 µM | 15.2 µM | > 100 µM | 9.86 µM | 59.2 µM | 10.5 µM | 61.9 µM | > 100 µM | > 100 µM | 25.9 µM | 16.3 µM | 4.12 µM | 3.49 µM | 2.89 µM | 9.12 µM | 3.43 µM | 17.8 µM | 5.12 µM | 7.81 µM | 2.59 µM
6 | CCCCSN1C(=O)c2ccccc2C1=S | > 100 µM | > 100 µM | > 100 µM | 51.2 µM | > 100 µM | > 100 µM | > 100 µM | > 100 µM | > 100 µM | > 100 µM |  |  |  |  |  |  |  |  |  | 
7 | Cc1ccc(C2CC(c3ccc([N+](=O)[O-])cc3)=Nc3ccccc3S2)cc1 (configuration not stated) | 40.3 µM |  | 46.2 µM | 43.4 µM | > 100 µM | 99.7 µM | > 100 µM | > 100 µM | > 100 µM | 82 µM |  |  |  |  |  |  |  |  |  | 
8 | COC(=O)C1CC(=O)CCC1c1ccccc1 (configuration not stated) | > 100 µM | > 100 µM | > 100 µM | > 100 µM | > 100 µM | > 100 µM | > 100 µM | > 100 µM | > 100 µM | > 100 µM |  |  |  |  |  |  |  |  |  | 
9 | CN(CCC#N)c1ccc(/C=C(\C#N)c2cccc(C(F)(F)F)c2)cc1 | > 100 µM | > 100 µM | > 100 µM | > 100 µM | > 100 µM | > 100 µM | > 100 µM | > 100 µM | > 100 µM | > 100 µM | 5.08 µM | 3.21 µM | 3.14 µM | 3 µM | 3.59 µM | 4.29 µM | 6.73 µM | 4.17 µM | 17 µM | 4.47 µM
10 | O=C(/C=C/C12c3ccccc3C(c3ccccc31)C1C(=O)N(c3ccccc3)C(=O)C12)c1ccc(Cl)cc1 (configuration not stated) | 3.66 µM | 2.16 µM | 6.46 µM | 5.18 µM | 3.37 µM |  | 4.66 µM | > 100 µM | > 100 µM | 6.77 µM | 1.7 µM | 0.537 µM | 1.19 µM | 0.795 µM | 1.6 µM |  | 1.6 µM | 2.34 µM | 2.68 µM | 1.37 µM
11 | N#CNC(N)=NCCO | > 100 µM | > 100 µM | > 100 µM | > 100 µM | > 100 µM | > 100 µM | > 100 µM | > 100 µM | > 100 µM | > 100 µM |  |  |  |  |  |  |  |  |  | 
12 | N#CCCN(CCC#N)C(=O)c1cccc(C(=O)N(CCC#N)CCC#N)c1 | > 100 µM | 99.4 µM | > 100 µM | > 73.3 µM | > 100 µM | > 100 µM | > 100 µM | > 58.3 µM | > 100 µM | > 59.3 µM |  |  |  |  |  |  |  |  |  | 
13 | Cc1c(C)c2c(c(C)c1NC(=O)/C=C\C(=O)O)CCC(C)(CCCC(C)CCCC(C)CCCC(C)C)O2 (configuration not stated) | 3.64 µM | 2.54 µM | 4.65 µM | 6.82 µM | 3.16 µM | 2.97 µM | 4.05 µM | 3.3 µM | 3.47 µM | 2.58 µM | 1.91 µM | 1.28 µM | 1.83 µM | 1.38 µM | 1.7 µM | 1.61 µM | 1.72 µM | 1.73 µM | 1.94 µM | 1.31 µM
14 | O=S1CSCS1 (configuration not stated) | > 100 µM | > 100 µM |  | > 100 µM | > 100 µM | > 100 µM | > 100 µM | > 100 µM | > 100 µM | > 100 µM |  |  |  |  |  |  |  |  |  | 
15 | N=CCCN(CCC=N)c1ccc(/C=C2\CN(NC(=O)c3ccc(Cl)cc3)C(c3ccccc3)=N2)cc1 | > 100 µM | > 100 µM | > 100 µM | > 100 µM | > 100 µM | > 100 µM | > 100 µM | > 100 µM | > 100 µM | > 100 µM |  |  |  |  |  |  |  |  |  | 
16 | O=C(CC(=O)c1ccc([N+](=O)[O-])cc1)C(=O)Nc1nccs1 | > 100 µM | > 100 µM | > 100 µM | > 100 µM | > 100 µM | > 100 µM | > 100 µM | > 100 µM | > 100 µM | > 100 µM |  |  |  |  |  |  |  |  |  | 
17 | O=C1c2ccccc2NC(c2cc(Cl)cc(Cl)c2O)N1CCc1ccccn1 (configuration not stated) | > 100 µM | > 100 µM | > 100 µM | > 100 µM | > 100 µM | > 100 µM | > 100 µM | > 100 µM | > 100 µM | > 100 µM |  |  |  |  |  |  |  |  |  | 
18 | Nc1ncnc2c1ncn2C1OC(CSC(F)(F)F)C(O)C1O (configuration not stated) | > 100 µM | > 100 µM | > 100 µM | > 100 µM | > 100 µM | > 100 µM | > 100 µM | > 100 µM |  | > 100 µM |  |  |  |  |  |  |  |  |  | 
19 | C=C1C(=O)O[C@H]2[C@H]1CC/C(Cn1cc(CNCCc3c[nH]c4ccc(Cl)cc34)nn1)=C\CC[C@@]1(C)O[C@@H]21 | 44.6 µM | 10 µM | 29.9 µM | 3.46 µM | 6.61 µM | 6.5 µM | 26.7 µM | 8.24 µM | 32.4 µM | 17.9 µM | 20.3 µM | 3.31 µM | 13.4 µM | 1.12 µM | 2.4 µM | 2.44 µM | 11.5 µM | 2.54 µM | 8.69 µM | 4.88 µM
20 | Cc1cc(=O)n(-c2ccccc2)c(=O)o1 | > 100 µM | > 100 µM | > 100 µM | > 100 µM | > 100 µM | > 100 µM | > 100 µM | > 100 µM | > 100 µM | > 100 µM |  |  |  |  |  |  |  |  |  | 
21 | COc1cc(N2CCN(C(C)C)CC2)ccc1Nc1nc(Nc2cccc3ncccc23)c2cc[nH]c2n1 | 9.77 µM | 7.11 µM | > 21.6 µM | 14.8 µM | 9.64 µM | 10.6 µM | > 25 µM | > 25 µM | > 25 µM | > 15.4 µM | 3.17 µM | 3.04 µM | 4.35 µM | 3.26 µM | 4.52 µM | 4.75 µM | 2.5 µM | 15.7 µM | 8.99 µM | 3.99 µM
22 | COc1cccc(C(=O)Nc2ccc(CN3CCc4nc5cc(OC)c(OC)cc5cc43)cc2)c1 | 18.5 µM | 12.1 µM | 19.3 µM | 27.7 µM | 27.6 µM |  | > 100 µM | 16.4 µM | > 100 µM | > 100 µM | 4.81 µM | 3.12 µM | 3.32 µM | 4.92 µM | 4.91 µM |  | 12.9 µM | 3.9 µM | 8.12 µM | 2.66 µM
23 | COc1c(C2=NC(C(C)C)CO2)ccc2ccccc12 (configuration not stated) | > 100 µM |  | > 100 µM | 42.9 µM | > 100 µM | > 100 µM | > 100 µM | > 100 µM | > 100 µM | > 100 µM |  |  |  |  |  |  |  |  |  | 
24 | COc1ccc(-c2nn(-c3ccc(NC(=O)c4ccc(Cl)c(C(F)(F)F)c4)cc3)cc2-c2ccncc2)cc1Cl | > 43.4 µM | > 100 µM |  | > 100 µM |  | > 100 µM | > 100 µM | > 100 µM | > 100 µM | 6.42 µM | 1.06 µM | 1.05 µM |  | 0.794 µM | 1.11 µM | 1.99 µM | 1.33 µM | 2.34 µM | 1.96 µM | 0.287 µM
25 | COc1cc(=O)oc(/C=C/C=O)c1C | 32.2 µM | 17.4 µM |  | 83.9 µM | 39.4 µM | 33.4 µM | > 100 µM | 20.7 µM | 28.5 µM | 32.8 µM |  |  |  |  |  |  |  |  |  | 
26 | O=C1c2ccccc2C(=O)C2C1C1C(=O)c3ccccc3C(=O)C21 (configuration not stated) | > 100 µM |  | > 100 µM | > 100 µM | > 100 µM | > 100 µM | > 100 µM | > 100 µM | > 100 µM | > 100 µM |  |  |  |  |  |  |  |  |  | 
